Experimental data reported in patent US6417159B1 (Queen's University at Kingston, priority 1996, dated 2002).

Key:
ciliary neurons = assay: CNTF survival effect on ciliary neurons; format: cell-based
PC12 cells [1] = assay: Uptake of [125I]NGF into PC12 cells; format: cell-based, rat; conditions: 20 pM or 0.2 nM [125I]NGF; saturating R3
Procedure: (§1) PC12 cells were removed from culture dishes with CMF, washed, and incubated at a concentration of 10^6 per ml in Hepes-Krebs-Ringer (HKR) buffer buffer with 1 mg·ml^−1 BSA for 90 minutes at 37° C. in the presence of 40 pM [^125I]NGF in the absence and presence of excess unlabeled NGF, and in the absence and presence of R3 peptide. Aliquots of 100 μl were removed in replicates and mircocentrifuged at 10,000×g for 1 minute. Supernatants were removed, tips were cut from the microcentrifuge tube and counted in a gamma counter. Specific binding was defined as the difference between binding of the ligand in the absence and presence of unlabeled NGF, and fractional specific binding in the absence and presence of R3 peptide was compared. Studies of [^125I]NGF uptake into PC12 and PC12^nnr5 cells were carried out in the absence and presence of 10 μM R3 peptide and following a 24-hour exposure of PC12 cultures to 10 μM R3 peptide. Cells were eposed to 20 pM or 0.2 nM [^125I]NGF for periods of time up to 240 minutes (steady state) at 37° C. The cells were then briefly acid-washed as described by Bernd and Greene (1984), and aliquots were prepared for gamma counting as described. NGF was radioiodinated as described in Sutter et al. (1979b).

PC12 cells [2] = assay: MTT assay of mitochondrial function; format: cell-based, rat
Procedure: A colorimetric assay measuring the number and respiratory activity of surviving cells (Mossman, 1983) was used to monitor the effect of the synthetic peptides on PC12 cells. Culture plates (96-233, Flow, flat bottom) were seeded with 4,000 cells per well and received treatment identical to the cells read for neurite formation. At the indicated times, the medium was removed from the wells with a Pasteur pipette and replaced with 110 μl of RPMI+10% fetal calf serum containing 0.45 mg·ml^−1 MTT (Sigma) and the plate were returned to a humidified, 5% CO2 incubator for 4 hours. 100 μl of 0.4N HCl in isopropanol was then added to each well with trituration (approximately 50 times) to solublize the formazan. The plates were read 10 minutes later in a flow Titertek Multiskan equipped with a 570 nm filter, and the optical density values obtained were corrected for cell-free blank. In each experiment, the values are the average of at least triplicate determinations normalized to its control. The MTT dye conversion was linear with number of viable cells over the range seeded, i.e. 2000 to 10,000 cells per well.

[3] = tested on: embryonic 19 day rat DRG neurons; assay: NGF-mediated neurite growth by ED19 rat DRG neurons; format: cell-based
Procedure: Dissociated cells enriched for sensory neurons from DRG of ED8 chick or ED19 rat were prepared as described in detail previously (Sutter et al., 1979a). ED19 rat DRG dissociates were not pre-plated pror to bioassay. Cells were seeded into wells of Terasaki plates previously treated with poly-D-lysine at 700-900 per well in supplemented Ham's F12 medium with 2.5% fetal calf serum and NGF at concentrations between 0.04 and 40 pM. The cells were incubated with the additives as described at 37° C., 5% CO2, and scored at various times for neurite growth by counting all cells on the lower horizontal surface of the wells, which is approximately 15% of the surface area of the top of the tapered wells.
A Leitz Diavert inverted microscope with phase optics was used to score neurite growth. For both PC12 cells and sensory neurons, a neurite was scored as such if its calibre from origin to terminal was approximately the same and the length was equal to or greater than 1.5 cell body diameters.

PC12^nnr5 cells [4] = assay: Uptake of [125I]NGF into PC12nnr5 cells; format: cell-based, rat; conditions: 20 pM or 0.2 nM [125I]NGF; saturating R3
Procedure: as §1

PC12^nnr5 cells [5] = assay: Acid phosphatase assay of cell survival, PC12nnr5 cells; format: cell-based, rat; conditions: PC12nnr5 (low-TrkA), serum-free conditions
Procedure: This is a colorimetric assay which measures the lysosomal enzyme acid phosphatase to determine cell number (Connolly et al., 1986) modified by Ueda et al. (1994) for use with cultured neuronal cells. Medium was removed gently from PC12 or PC12^nnr5 cells cultured in 96 well plates and well were washed once with 200 μl PBS. Then 100 μl of buffer containing 0.1M sodium acetate pH 5.5, 0.1% TRITON™ X-100, and 10 mM p-nitrophenyl phosphate (Sigma 104 phosphatase substrate) was added to each well. Plates were placed in a 37° C., 5% CO2 incubator for 3 hours. The reaction was stopped by the addition of 10 μl/well of 1N sodium hydroxide and the colour development measured at 405 nm using a microplate reader (Titertek). The first column on each plate contained no cells (buffer only) and was used as a blank. The relationship between cell number and enzyme activity was linear over the range 1000 to 15,000 cells.
To exclude the possibility that the effects of R3 on neurite growth in the experiments described above were indirect and mediated by an influence on cell survival, PC12 and PC12^nnr5 cells were exposed to serum free conditions in the absence and presences of NGF, and in the absence and presence of R3. […] Nor was there any difference in NGF-mediated survival whether R3 exposure occurred before or at the same time as NGF exposure. […]

LDALLAALRRIQR [R3]
Influence on survival effect of CNTF on ciliary neurons, in words (ciliary neurons): no influence | Rates of [125I]NGF uptake, in words (PC12 cells [1]): not influenced | Mitochondrial succinate dehydrogenase activity (MTT), in words (PC12 cells [2]): not enhanced | Effect on NGF-mediated neurite growth, co-incubation, in words [3]: enhancing effect | Rates of [125I]NGF uptake, in words (PC12^nnr5 cells [4]): not influenced | Influence on NGF-mediated cell survival, in words (PC12^nnr5 cells [5]): no influence on NGF-mediated survival
